Measured values taken from patent US12404272B2, “Process for making a PD-1/PD-L1 inhibitor and salts and crystalline forms thereof” (Incyte Corporation, priority 2020, dated 2025).
Counter-ions that a name gives are not always drawn. Values belong to the compound of their own block, whether it stands above or below them.

Key:
Format in all cases: physicochemical
[1] = Static storage at elevated temperature and relative humidity, re-analysis by XRPD
Method: In some examples below, X-Ray Powder Diffraction analysis was carried out on a Bruker D8 X-ray Powder Diffractometer (XRPD) instrument using Cu Kα radiation (40 kV, 40 mA) and a θ-2θ goniometer fitted with a Ge monochromator. The incident beam passes through a 2.0 mm divergence slit followed by a 0.2 mm anti-scatter slit and knife edge. The diffracted beam passes through an 8.0 mm receiving slit with 2.5° Soller slits followed by the Lynxeye Detector. The software used for data collection and analysis was Diffrac Plus XRD Commander and Diffrac Plus EVA respectively. Samples were run under ambient conditions as flat plate specimens using powder as received. The sample was prepared on a polished, zero-background (510) silicon wafer by gently pressing onto the flat surface or packed into a cut cavity. The sample was rotated in its own plane. The general experimental procedures for XRPD were: (1) angular range: 2 to 42° 2θ; (2) step size: 0.05° 2θ; and collection time: 0.5 s/step (total collection time: 6.40 min). The extended data collection experimental procedures for XRPD were: (1) angular range: 3 to 30° 2θ; (2) step size: 0.05° 2θ; and collection time: 4 s/step (total collection time: 38.00 min).
In some examples below, X-Ray Powder Diffraction analysis was carried out on a PANalytical Empyrean X-ray Powder Diffractometer (XRPD) instrument using Cu Kα radiation (45 kV, 40 mA) in transmission geometry. A 0.5° slit, 4 mm mask and 0.04 rad Soller slits with a focusing mirror were used on the incident beam. A PIXcel^3D detector, placed on the diffracted beam, was fitted with a receiving slit and 0.04 rad Soller slits. The software used for data collection was X'Pert Data Collector using X'Pert Operator Interface. The data were analysed and presented using Diffrac Plus EVA or HighScore Plus. Samples were prepared and analysed in either a metal or Millipore 96 well-plate in transmission mode. X-ray transparent film was used between the metal sheets on the metal well-plate and powders (approximately 1-2 mg) were used as received. […]

[2] = Gravimetric vapour sorption (GVS)
Method: Gravimetric Vapour sorption (GVS) was carried out using a SMS DVS Intrinsic moisture sorption analyser, controlled by DVS Intrinsic Control software. The sample temperature was maintained at 25° C. by the instrument controls. The humidity was controlled by mixing streams of dry and wet nitrogen, with a total flow rate of 200 ml/min. The relative humidity was measured by a calibrated Rotronic probe (dynamic range of 1.0-100% RH), located near the sample. The weight change, (mass relaxation) of the sample as a function of % RH was constantly monitored by a microbalance (accuracy ±0.005 mg).
Typically, 5-30 mg of sample was placed in a tared mesh stainless steel basket under ambient conditions. The sample was loaded and unloaded at 40% RH and 25° C. (typical room conditions). A moisture sorption isotherm was performed as outlined below (2 scans per complete cycle). The standard isotherm was performed at 25° C. at 10% RH intervals over a 0-90% RH range. Typically, a double cycle (4 scans) was carried out.
The sample was recovered after completion of the isotherm and re-analysed by XRPD.

[3] = Maturation in solvents (20 vol), dissolution observed; settings: matured RT-50° C. for 3 days
Method: The methanesulfonic acid salt (20 mg) was treated with solvent (20 vol) and matured (RT −50° C., 4 h) for 3 days. Samples were then analyzed by XRPD. Attempts in improve the crystallinity of the scaled up methanesulfonic acid salt was undertaken by subjecting the material to maturation for 72 h in a variety of solvents. A slight improvement in crystallinity was observed from maturing in 2-propanol, ethyl acetate, and tert-butyl methyl ether.

hygroscopicity ([2]; GVS, 0-90% RH): very hygroscopic
XRPD analysis following the GVS experiment ([2]; after GVS isotherm): remained unchanged
weight uptake ([2]; between 0-90% RH, 25° C.): 19.5 % w/w
SMILES: Cc1c(Nc2nc(C(F)F)nc3cc(CN4CC[C@@H](O)C4)cnc23)cccc1-c1cccc(-c2nc3cc(CN4CCC(C(=O)O)CC4)cc(C#N)c3o2)c1C [(R)-1-((7-cyano-2-(3′-((2-(difluoromethyl)-7-((3-hydroxypyrrolidin-1-yl)methyl)pyrido[3,2-d]pyrimidin-4-yl)amino)-2,2′-dimethyl-[1,1′-biphenyl]-3-yl)benzo[d]oxazol-5-yl)methyl)piperidine-4-carboxylic acid]
XRPD analysis following static storage ([1]; 25° C./97% RH for 5 days): remained unchanged, however a loss in crystallinity was observed
XRPD analysis following static storage ([1]; 40° C./75% RH for 5 days): remained unchanged, however a loss in crystallinity was observed

dissolution in solvent ([3]; ethanol): complete dissolution
dissolution in solvent ([3]; water): complete dissolution
SMILES: Cc1c(Nc2nc(C(F)F)nc3cc(CN4CC[C@@H](O)C4)cnc23)cccc1-c1cccc(-c2nc3cc(CN4CCC(C(=O)O)CC4)cc(C#N)c3o2)c1C [methanesulfonic acid salt, (R)-1-((7-cyano-2-(3′-((2-(difluoromethyl)-7-((3-hydroxypyrrolidin-1-yl)methyl)pyrido[3,2-d]pyrimidin-4-yl)amino)-2,2′-dimethyl-[1,1′-biphenyl]-3-yl)benzo[d]oxazol-5-yl)methyl)piperidine-4-carboxylic acid]

XRPD following static storage ([1]; 7 days at elevated temperature and relative humidity conditions): remained unchanged
SMILES: Cc1c(Nc2nc(C(F)F)nc3cc(CN4CC[C@@H](O)C4)cnc23)cccc1-c1cccc(-c2nc3cc(CN4CCC(C(=O)O)CC4)cc(C#N)c3o2)c1C [Free form Form I, (R)-1-((7-cyano-2-(3′-((2-(difluoromethyl)-7-((3-hydroxypyrrolidin-1-yl)methyl)pyrido[3,2-d]pyrimidin-4-yl)amino)-2,2′-dimethyl-[1,1′-biphenyl]-3-yl)benzo[d]oxazol-5-yl)methyl)piperidine-4-carboxylic acid]
